“And” between values parts separate entries of the source, which are not always exact repeats. Equal values may be shown once. Toxic doses and inconclusive results are not listed.
Test system: BDF1 mice, P388 leukemia ip, median survival T/C
Test: NCI In Vivo Anticancer Drug Screen. Data for tumor model P388 Leukemia (intraperitoneal) in B6D2F1 (BDF1) mice
Settings: endpoint: median survival time, higher = longer survival
Outline: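 Each value expresses how treatment altered survival: treated-mouse outcome over vehicle-mouse outcome, both groups bearing the transplanted tumour.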

[1] = dose: 25.0 mg/kg/injection, schedule: Q01DX009 (ip), vehicle: Klucel (hydroxypropylcellulose) (HPC)
[2] = dose: 100.0 mg/kg/injection, schedule: Q01DX009 (ip), vehicle: saline
[3] = dose: 100.0 mg/kg/injection, schedule: Q04DX003 (ip), vehicle: saline
[4] = dose: 200.0 mg/kg/injection, schedule: Q01DX009 (ip), vehicle: saline
[5] = dose: 200.0 mg/kg/injection, schedule: Q04DX003 (ip), vehicle: saline
[6] = dose: 400.0 mg/kg/injection, schedule: Q04DX003 (ip), vehicle: saline
[7] = dose: 25.0 mg/kg/injection, schedule: Q04DX003 (ip), vehicle: saline
[8] = dose: 50.0 mg/kg/injection, schedule: Q04DX003 (ip), vehicle: saline
[9] = dose: 100.0 mg/kg/injection, schedule: Q04DX003 (ip), vehicle: Klucel (hydroxypropylcellulose) (HPC)
[10] = dose: 25.0 mg/kg/injection, schedule: Q01DX009 (ip), vehicle: saline with Tween-80
[11] = dose: 6.25 mg/kg/injection, schedule: Q04DX003 (ip), vehicle: saline with Tween-80
[12] = dose: 12.5 mg/kg/injection, schedule: Q04DX003 (ip), vehicle: saline with Tween-80
[13] = dose: 25.0 mg/kg/injection, schedule: Q04DX003 (ip), vehicle: saline with Tween-80

SMILES: CC[C@H](C)c1occ2c(O)c(C(=O)O)c(=O)cc-2c1C
- T/C (dose: 6.0 mg/kg/injection, schedule: Q01DX009 (ip), vehicle: Klucel (hydroxypropylcellulose) (HPC)): 100 % of control
- T/C (dose: 12.0 mg/kg/injection, schedule: Q01DX009 (ip), vehicle: Klucel (hydroxypropylcellulose) (HPC)): 118 % of control
- T/C [1]: 118 % of control

SMILES: Nc1ccn[nH]1
- T/C [2]: 100 % of control
- T/C [3]: 100 % of control
- T/C [4]: 100 % of control
- T/C [5]: 109 % of control
- T/C (dose: 400.0 mg/kg/injection, schedule: Q01DX009 (ip), vehicle: saline): 118 % of control
- T/C [6]: 122 % of control

SMILES: CC(=O)NC(C)C(=O)NC(CC(=O)O)C(=O)O (stereo not drawn)
- T/C (dose: 50.0 mg/kg/injection, schedule: Q01DX005 (ip), vehicle: saline): 97 % of control
- T/C (dose: 100.0 mg/kg/injection, schedule: Q01DX005 (ip), vehicle: saline): 100 % of control
- T/C (dose: 200.0 mg/kg/injection, schedule: Q01DX005 (ip), vehicle: saline): 103 % of control

SMILES: CN1CC2([N+](=O)[O-])C=CCC([N+](=O)[O-])(C1)C2 (stereo not drawn)
- T/C (dose: 25.0 mg/kg/injection, schedule: Q01DX009 (ip), vehicle: water): 90 % of control
- T/C (dose: 50.0 mg/kg/injection, schedule: Q01DX009 (ip), vehicle: water): 115 % of control
- T/C (dose: 100.0 mg/kg/injection, schedule: Q01DX009 (ip), vehicle: water): 108 % of control
- T/C (dose: 200.0 mg/kg/injection, schedule: Q01DX009 (ip), vehicle: water): 99 % of control

SMILES: c1cnc2[nH]cnc2n1
- T/C [2]: 95 % of control
- T/C [3]: 100 % of control
- T/C [4]: 95 % of control
- T/C [5]: 100 % of control
- T/C [6]: 90 % of control

SMILES: CC(C)(C)C1=C[P+](c2ccccc2)(c2ccccc2)C(C(C)(C)C)=C[P+]1(c1ccccc1)c1ccccc1
- T/C (dose: 12.5 mg/kg/injection, schedule: Q01DX009 (ip), vehicle: saline): 96 % of control
- T/C (dose: 12.5 mg/kg/injection, schedule: Q04DX003 (ip), vehicle: saline): 96 % of control
- T/C (dose: 25.0 mg/kg/injection, schedule: Q01DX009 (ip), vehicle: saline): 107 % of control
- T/C [7]: 100 % of control
- T/C [8]: 96 % of control

SMILES: COC(=O)c1cc(=O)n(-c2ccccc2F)c(SC)n1
- T/C [9]: 116 % of control

SMILES: OC1(C2CCCCC2)C2CCCC1CCC2 (stereo not drawn)
- T/C (dose: 12.5 mg/kg/injection, schedule: Q01DX009 (ip), vehicle: saline with Tween-80): 104 % of control
- T/C [10]: 95 % of control
- T/C (dose: 50.0 mg/kg/injection, schedule: Q01DX009 (ip), vehicle: saline with Tween-80): 109 % of control
- T/C (dose: 100.0 mg/kg/injection, schedule: Q04DX003 (ip), vehicle: other): 104 % of control
- T/C (dose: 200.0 mg/kg/injection, schedule: Q04DX003 (ip), vehicle: other): 109 % of control
- T/C (dose: 400.0 mg/kg/injection, schedule: Q04DX003 (ip), vehicle: other): 104 % of control

SMILES: c1ccc(P(CCP(CCP(c2ccccc2)c2ccccc2)c2ccccc2)CCP(c2ccccc2)c2ccccc2)cc1 (stereo not drawn)
- T/C (dose: 100.0 mg/kg/injection, schedule: Q01DX009 (ip), vehicle: saline with Tween-80): 90 % of control and 100 % of control
- T/C (dose: 200.0 mg/kg/injection, schedule: Q01DX009 (ip), vehicle: saline with Tween-80): 110 % of control and 100 % of control
- T/C (dose: 400.0 mg/kg/injection, schedule: Q01DX009 (ip), vehicle: saline with Tween-80): 100 % of control and 120 % of control

SMILES: CCCCCCCCCCCCCCCCOc1ccccn1
- T/C [1]: 91 % of control
- T/C (dose: 50.0 mg/kg/injection, schedule: Q01DX009 (ip), vehicle: Klucel (hydroxypropylcellulose) (HPC)): 95 % of control
- T/C (dose: 100.0 mg/kg/injection, schedule: Q01DX009 (ip), vehicle: Klucel (hydroxypropylcellulose) (HPC)): 95 % of control
- T/C [9]: 100 % of control
- T/C (dose: 200.0 mg/kg/injection, schedule: Q04DX003 (ip), vehicle: Klucel (hydroxypropylcellulose) (HPC)): 104 % of control
- T/C (dose: 400.0 mg/kg/injection, schedule: Q04DX003 (ip), vehicle: Klucel (hydroxypropylcellulose) (HPC)): 122 % of control

SMILES: Cc1cccnc1N1CCNC1=O
- T/C [7]: 90 % of control
- T/C [8]: 90 % of control
- T/C [3]: 100 % of control

SMILES: N=c1c2c(C(N)=O)cn(C3OC(CO)C(O)C3O)c2ncn1O (stereo not drawn)
- T/C (dose: 0.75 mg/kg/injection, schedule: Q01DX009 (ip), vehicle: saline with Tween-80): 122 % of control
- T/C (dose: 1.5 mg/kg/injection, schedule: Q01DX009 (ip), vehicle: saline with Tween-80): 154 % of control
- T/C (dose: 2.0 mg/kg/injection, schedule: Q01DX009 (ip), vehicle: saline with Tween-80): 180 % of control
- T/C (dose: 2.0 mg/kg/injection, schedule: Q04DX003 (ip), vehicle: saline with Tween-80): 122 % of control
- T/C (dose: 2.9 mg/kg/injection, schedule: Q04DX003 (ip), vehicle: saline with Tween-80): 160 % of control
- T/C (dose: 4.4 mg/kg/injection, schedule: Q04DX003 (ip), vehicle: saline with Tween-80): 117 % of control
- T/C (dose: 6.7 mg/kg/injection, schedule: Q04DX003 (ip), vehicle: saline with Tween-80): 166 % of control
- T/C (dose: 10.0 mg/kg/injection, schedule: Q04DX003 (ip), vehicle: saline with Tween-80): 190 % of control
- T/C (dose: 15.0 mg/kg/injection, schedule: Q04DX003 (ip), vehicle: saline with Tween-80): 123 % of control

SMILES: CSC(=S)NNC(=O)c1cccc([N+](=O)[O-])c1
- T/C (dose: 6.25 mg/kg/injection, schedule: Q04DX003 (ip), vehicle: saline sonified): 110 % of control
- T/C (dose: 12.5 mg/kg/injection, schedule: Q04DX003 (ip), vehicle: saline sonified): 105 % of control
- T/C (dose: 25.0 mg/kg/injection, schedule: Q04DX003 (ip), vehicle: saline sonified): 100 % of control

SMILES: CC[N+](CC)(CC)CCCNC1=CC(=O)C(NCCC[N+](CC)(CC)CC)=CC1=O
- T/C (dose: 0.39 mg/kg/injection, schedule: Q04DX003 (ip), vehicle: saline): 99 % of control
- T/C (dose: 0.78 mg/kg/injection, schedule: Q04DX003 (ip), vehicle: saline): 99 % of control

SMILES: CC1(C)N=C(N)N=C(N)N1c1ccc(CNC(=O)Nc2ccc(S(=O)(=O)F)cc2)c(Cl)c1
- T/C (dose: 16.5 mg/kg/injection, schedule: Q01DX009 (ip), vehicle: saline with Tween-80): 176 % of control
- T/C [10]: 188 % of control
- T/C (dose: 37.5 mg/kg/injection, schedule: Q01DX009 (ip), vehicle: saline with Tween-80): 185 % of control
- T/C (dose: 88.0 mg/kg/injection, schedule: Q04DX003 (ip), vehicle: saline with Tween-80): 186 % of control
- T/C (dose: 132.0 mg/kg/injection, schedule: Q04DX003 (ip), vehicle: saline with Tween-80): 157 % of control

SMILES: CCOC(=O)N1N(C(=O)c2ccccc2)C(=O)CC1(C)C
- T/C (dose: 200.0 mg/kg/injection, schedule: Q01DX001 (ip), vehicle: other): 100 % of control
- T/C (dose: 400.0 mg/kg/injection, schedule: Q01DX001 (ip), vehicle: other): 109 % of control

SMILES: O=C(OCC(OC(=O)c1ccccc1)C(OC(=O)c1ccccc1)C(OC(=O)c1ccccc1)C(COC(=O)c1ccccc1)OC(=O)c1ccccc1)c1ccccc1 (stereo not drawn)
- T/C [11]: 97 % of control
- T/C [12]: 92 % of control
- T/C [13]: 97 % of control
- T/C (dose: 50.0 mg/kg/injection, schedule: Q04DX003 (ip), vehicle: saline with Tween-80): 87 % of control

SMILES: COC12C(COC(N)=O)C3=C(C(=O)C(C)=C(N)C3=O)N1CC1C2N1C (stereo not drawn)
- T/C (dose: 2.0 mg/kg/injection, schedule: Q01DX009 (ip), vehicle: saline): 163 % of control
- T/C (dose: 2.0 mg/kg/injection, schedule: Q01DX010 (ip), vehicle: saline): 175 % of control
- T/C (dose: 4.0 mg/kg/injection, schedule: Q01DX009 (ip), vehicle: saline): 179 % of control
- T/C (dose: 4.0 mg/kg/injection, schedule: Q01DX010 (ip), vehicle: saline): 190 % of control
- T/C (dose: 8.0 mg/kg/injection, schedule: Q01DX009 (ip), vehicle: saline): 198 % of control
- T/C (dose: 8.0 mg/kg/injection, schedule: Q01DX010 (ip), vehicle: saline): 240 % of control
- T/C (dose: 16.0 mg/kg/injection, schedule: Q01DX009 (ip), vehicle: saline): 88 % of control
- T/C (dose: 16.0 mg/kg/injection, schedule: Q01DX010 (ip), vehicle: saline): 110 % of control

SMILES: O=c1cc(CBr)c2ccccc2[nH]1
- T/C [11]: 91 % of control
- T/C [12]: 104 % of control
- T/C [13]: 104 % of control

SMILES: CCCCc1ccc(N2C(N)=NC(N)=NC2(C)C)cc1
- T/C (dose: 6.25 mg/kg/injection, schedule: Q01DX005 (ip), vehicle: Klucel (hydroxypropylcellulose) (HPC)): 111 % of control
- T/C (dose: 12.5 mg/kg/injection, schedule: Q01DX005 (ip), vehicle: Klucel (hydroxypropylcellulose) (HPC)): 110 % of control
